Laboratory results as given in patent EP0781268B1, “DERIVATIVES OF 2-AMINO-1,2,3,4-TETRAHYDRONAPHTHALENE ACTIVE ON THE CARDIOVASCULAR SYSTEM” (ZAMBON GROUP S.p.A., priority 1994, dated 1996).
Where a name gives a salt, the structure may show the parent alone.

Columns and labels:
D1 receptor = target: T1, D1 receptor (Rattus norvegicus, UniProt P18901); experiment: biochemical; format: binding; conditions: rat striated membranes; 0.2 nM [3H]-SCH23390; 37°C for 20 minutes; read-out: Affinity [K1 (nM)] D1 [^3H]-SCH23390
T1 construct: from tissue; host or cells: rat brain striatum membranes
Procedure: The conditions of standard incubation (volume 1000 µl) for the test in which [^3H]-SCH23390 was used were the following: 50 mM Tris/HCl buffer (pH.7.4), 0.2 nM [^3H]-SCH23390, a membrane preparation of 130-140 µg proteins/ml.
The mixture was incubated with different concentrations of the tested compounds at 37°C for 20 minutes, filtered under vacuum through Whatman GF/C filters and then washed 4 times with 5 ml of 50 mM Tris/HCl buffer (pH 7.4) cooled with ice.

D2 receptor = target: T2, D2 receptor (Rattus norvegicus, UniProt P61169); experiment: biochemical; format: binding; conditions: rat striated membranes; [3H]-domperidone 0.3 nM; BSA 0.01%; 37°C for 30 minutes; read-out: Affinity [K1 (nM)] D2 [^3H]-domperidone
T2 construct: from tissue; host or cells: rat brain striatum membranes
Procedure: The tissue were homogenized in 50 mM Tris/HCl buffer at pH 7.4 (1:100 w/v).
The homogenate was centrifuged and the pellet resuspended, recentrifuged and resuspended again in 50 mM Tris/HCl buffer at pH 7.4 containing 120 mM NaCl, 5mM KCl, 2 mM CaCl2 and 1 mM MgCl2.
Furthermore, bovine serum albumine (BSA) (0.01%) was added.
The mixture was incubated at 37°C for 30 minutes for each concentration of tested compounds.

D1-like (RSA) = experiment: D1-like activity in the Rabbit Splenic Artery (RSA) test, isolated arterial rings; conditions: agonist activity; arterial preparations contracted with U46619 0.1 µM; compounds cumulatively administered
Procedure: Arterial rings were prepared according to Semeraro et al., Naunyn. Schmied. Arch. Pharmacol., 1990, 342 539. […] The tested compounds were cumulatively administered. Dopamine and dopexamine were used as reference substances.

D2-like (REA) = experiment: D2-like activity in the Rabbit Ear Artery (REA) test, isolated arterial rings; set-up: species or system Male New Zealand rabbits; conditions: agonist activity; electrically stimulated ear artery rings (10 Hz, 1 msec, 40-80 mA); compounds cumulatively administered
Procedure: Arterial rings were prepared according to the method described by […] al., Science, 1978, 443 199, modified as follows. Male New Zealand rabbits weighing 2.5-3 Kg were sacrificed by intravenous injection of an excess of pentobarbital sodium and exsanguinated. The two ears were taken away and the central ear artery was dissected into 3 mm long rings. These preparations were set up in a 25 ml organ bath containing Krebs solution (mM/l): NaCl 118, KCl 4.7, CaCl2 2.5, MgSO4 1.2, NaHCO3 25, KH2PO4 1.2, glucose 11.1, equilibrated with 95% O2-5% CO2 and maintained at 35±1°C. Krebs solution was medicated with EDTA (10 μM) to prevent cathecolamine oxydation, desipramine (0.1 μM) and corticosterone (30 μM), to block neuronal and extraneuronal cathecolamine uptake. The preparations were electrically stimulated (10 Hz, 1 msec, 40-80 mA, 500 msec duration) at 5 minutes intervals. The tested compounds were cumulatively administered. Dopamine and dopexamine were used as reference substances.

[1] = Fitton and Benfield, Drugs, 39(2), 308-330 (1990); cited from earlier work

T1 sequence (P18901 whole entry): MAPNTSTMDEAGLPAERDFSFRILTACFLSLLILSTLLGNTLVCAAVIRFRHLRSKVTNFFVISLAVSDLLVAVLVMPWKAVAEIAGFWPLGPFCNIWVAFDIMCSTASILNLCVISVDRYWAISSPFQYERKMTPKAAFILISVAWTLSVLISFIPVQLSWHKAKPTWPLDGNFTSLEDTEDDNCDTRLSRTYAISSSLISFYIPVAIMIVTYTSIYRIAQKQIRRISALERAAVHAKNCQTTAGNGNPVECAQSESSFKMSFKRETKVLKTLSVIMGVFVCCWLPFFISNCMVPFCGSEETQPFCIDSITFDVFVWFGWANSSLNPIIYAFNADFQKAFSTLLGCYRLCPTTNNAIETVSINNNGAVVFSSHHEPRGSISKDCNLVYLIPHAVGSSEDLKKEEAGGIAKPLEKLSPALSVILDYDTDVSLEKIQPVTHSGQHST
T2 sequence (P61169 whole entry): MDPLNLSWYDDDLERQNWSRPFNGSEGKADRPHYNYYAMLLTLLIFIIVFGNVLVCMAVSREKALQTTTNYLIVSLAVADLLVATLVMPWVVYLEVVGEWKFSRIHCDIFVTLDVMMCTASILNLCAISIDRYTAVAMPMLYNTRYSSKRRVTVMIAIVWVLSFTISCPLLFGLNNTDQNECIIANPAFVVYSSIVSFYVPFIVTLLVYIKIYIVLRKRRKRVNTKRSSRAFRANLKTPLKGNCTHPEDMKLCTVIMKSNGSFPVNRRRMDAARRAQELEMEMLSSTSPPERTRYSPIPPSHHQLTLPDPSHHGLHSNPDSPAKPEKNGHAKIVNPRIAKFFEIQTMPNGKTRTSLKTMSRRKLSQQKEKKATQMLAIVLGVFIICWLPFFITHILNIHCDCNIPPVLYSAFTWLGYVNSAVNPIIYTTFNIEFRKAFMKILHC

Structure (SMILES)	Ki (D1 receptor) [nM]	Ki (D2 receptor) [nM]	D1-like (RSA) pD2 (D1-like (RSA))	D2-like (REA) pD2 (D2-like (REA))	absorption when administered by oral route [1]
Br.Br.CCCN(CCCCCCNCCc1ccc(O)c(O)c1)[C@H]1CCc2c(O)cccc2C1 [Compound 6, (S)-N-propyl-N-[6-[2-(3,4-dihydroxyphenyl)ethylamino]hexyl]-5-hydroxy-1,2,3,4-tetrahydro-2-naphthylamine dihydrobromide]			7.5	9.6	
CCCN(CCCCNCCc1ccccc1)[C@H]1CCc2c(ccc(O)c2O)C1 [Compound 8, (S)-N-propyl-N-[4-(2-phenyletylamino)butyl]-5,6-dihydroxy-1,2,3,4--tetrahydro-2-naphthylamine dihydrobromide]	361	1	6.4	8.2	
Br.Br.CCCN(CCCCCCNCCc1ccc(O)cc1)[C@H]1CCc2c(O)cccc2C1 [Compound 9, (S)-N-propyl-N-[6-[2-(4-hydroxyphenyl)ethylamino]hexyl]-5-hydroxy-1,2,3,4-tetrahydro-2-naphthylamine dihydrobromide]				9.1	
CCCN(CCCCCCNCCCc1ccccc1)[C@H]1CCc2c(ccc(O)c2O)C1 [Compound 12, (S)-N-propyl-N-[6-(3-phenylpropylamino)hexyl]-5,6-dihydroxy-1,2,3,4--tetrahydro-2-naphthylamine dihydrochloride]			7.1	8.6	
Br.Br.CCCN(CCCCCCNCCc1ccc(O)cc1)[C@@H]1CCc2cc(O)c(O)cc2C1 [Compound 14, (R)-N-propyl-N-[6-[2-(4-hydroxyphenyl)ethylamino]hexyl]-6,7-dihydroxy-1,2,3,4-tetrahydro-2-naphthylamine dihydrobromide]			7.9	9.9	
CCCN(CCCCCCN(CCC)[C@H]1CCc2c(ccc(O)c2O)C1)CCc1ccc(O)cc1 [Compound 18, (S)-N-propyl-N-[2-(4-hydroxyphenyl)ethyl]-N'-propyl-N'-[2-(5,6-dihydroxy-1,2,3,4-tetrahydro)naphthyl]-1,6-hexandiamine dihydrobromide]	107	0.9	6.6	9.2	
NCCc1ccc(O)c(O)c1 [Dopamine, reference compound]			6.4	7.8	not absorbed
Oc1ccc(CCNCCCCCCNCCc2ccccc2)cc1O [Dopexamine, dopexamine, reference compound]		1220	6.1	6.3	not absorbed

The next lines start with results.

Ki (D1 receptor) [nM]	Ki (D2 receptor) [nM]	Structure (SMILES)	D1-like (RSA) pD2 (D1-like (RSA))	D2-like (REA) pD2 (D2-like (REA))	absorption when administered by oral route [1]
21	0.5	Br.Br.CCCN(CCCCCCNCCc1cccc(O)c1)[C@H]1CCc2c(ccc(O)c2O)C1 [Compound 1, (S)-N-propyl-N-[6-[2-(3-hydroxyphenyl)ethylamino)-hexyl]-5,6-dihydroxy-1,2,3,4-tetrahydro-2-naphthylamine dihydrobromide]	8.1	8.8	
10	0.2	Br.Br.CCCN(CCCCCCNCCc1ccc(O)cc1)[C@H]1CCc2c(ccc(O)c2O)C1 [Compound 2, (S)-N-propyl-N-[6-[2-(4-hydroxyphenyl)ethylamino)hexyl]-5,6-dihydroxy-1,2,3,4-tetrahydro-2-naphthylamine dihydrobromide]	8.4	8.8	
21	0.5	Br.Br.CCCN(CCCCCCNCCc1ccc(O)c(O)c1)[C@H]1CCc2c(ccc(O)c2O)C1 [Compound 3, (S)-N-propyl-N-[6-[2-(3,4-dihydroxyphenyl)ethylamino)hexyl]-5,6-dihydroxy-1,2,3,4-tetrahydro-2-naphthylamine dihydrobromide]	8.1	9.5	
33	0.1	Br.Br.CCCN(CCCCCCNCCc1cc(O)cc(O)c1)[C@H]1CCc2c(ccc(O)c2O)C1 [Compound 4, (S)-N-propyl-N-[6-[2-(3,5-dihydroxyphenyl)ethylamino)hexyl]-5,6-dihydroxy-1,2,3,4-tetrahydro-2-naphthylamine dihydrobromide]	8.5	10.6	
69	0.3	CCCN(CCCCCCN(C)CCc1ccccc1)[C@H]1CCc2c(ccc(O)c2O)C1 [Compound 5, (S)-N-methyl-N-(2-phenylethyl)-N'-propyl-N'-[2-(5,6-dihydroxy-1,2,3,4-tetrahydro)naphthyl]-1.6-hexandiamine dihydrobromide]			
27	0.5	CCCN(CCCCCCCCNCCc1ccc(O)c(O)c1)[C@H]1CCc2c(ccc(O)c2O)C1 [Compound 7, dihydrobromide]			
40	0.1	CCCN(CCCCCCNCCc1ccccc1)[C@H]1CCc2c(ccc(O)c2O)C1.Cl.Cl [Compound 10, (S)-N-propyl-N-[6-(2-phenylethylamino)hexyl]-5,6-dihydroxy-1,2,3,4-tetrahydro-2-naphthylamine dihydrochloride]	7.2	9.2	
89	0.5	CCCN(CCCCCCNCCc1ccccc1)[C@H]1CCc2cc(O)c(O)cc2C1 [Compound 11, (S)-N-propyl-N-[6-(2-phenylethylamino)hexyl]-6,7-dihydroxy-1,2,3,4--tetrahydro-2-naphthylamine dihydrochloride]	6.2	8.4	
43	0.8	Br.Br.CCCN(CCCCCCNCCc1ccc(O)c(O)c1)[C@@H]1CCc2cc(O)c(O)cc2C1 [Compound 13, (R)-N-propyl-N-[6-[2-(3,4-dihydroxyphenyl)ethylamino]hexyl]-6,7-dihydroxy-1,2,3,4-tetrahydro-2-naphthylamine dihydrobromide]	7.7	9.4	
33	0.4	Br.Br.CCCN(CCCCCCNCCc1ccccc1O)[C@H]1CCc2c(ccc(O)c2O)C1 [Compound 15, (S)-N-propyl-N-[6-[2-(2-hydroxyphenyl)ethylamino]hexyl]-5,6-dihydroxy-1,2,3,4-tetrahydro-2-naphthylamine dihydrobromide]	7.3	9.2	
